TGI data for 15 molecules are collected here from PubChem BioAssay (NCI).

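The compound was tested at five concentrations on cells cultured in 96-well plates, with a 48-hour exposure period. Definition used: TGI = concentration required for complete inhibition of growth.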

Some test systems named below: M14 melanoma; SW-620 colon; LOX IMVI melanoma; ACHN renal; HCT-116 colon; SF-268 CNS; SK-OV-3 ovarian; MOLT-4 leukemia; RPMI-8226 leukemia.
Assay in all cases: NCI tumour cell line growth inhibition, 48 h

Regarding `COc1ccc(Nc2nc3ccccc3nc2-c2cccs2)cc1`, the TGI with M14 melanoma, with SW-620 colon, in the assay on LOX IMVI melanoma, in the assay on ACHN renal, in the assay on HCT-116 colon and in the assay with SF-268 CNS was more than 100 µM in each case. Also, the TGI in the assay with SK-OV-3 ovarian and with MOLT-4 leukemia was more than 100 µM in each case.

Regarding `CC1(c2ccccc2)CC(c2ccccc2)=NO1` (stereo not given), the TGI in the assay on M14 melanoma, in the assay on SW-620 colon, in the assay with ACHN renal, with RPMI-8226 leukemia, with HCT-116 colon and in the assay on SF-268 CNS was more than 100 µM in each case. Besides, the TGI in the assay on SK-OV-3 ovarian and in the assay on MOLT-4 leukemia was more than 100 µM each time.

On to `CC1(Cc2ccccc2)NC(=S)NC1=O` (stereo not given), for which the TGI in the assay on M14 melanoma, in the assay with SW-620 colon, in the assay with LOX IMVI melanoma, with ACHN renal and in the assay with SF-268 CNS was more than 100 µM throughout.

For the molecule `O=c1c(Cl)c(Cl)cnn1CCc1ccncc1`, the TGI with M14 melanoma was 30.7 µM; in the assay on SW-620 colon, 41.2 µM; in the assay on LOX IMVI melanoma it was 33.7 µM; in the assay with ACHN renal, 33.4 µM; in the assay on RPMI-8226 leukemia, more than 100 µM; with HCT-116 colon, 30.7 µM. The TGI is 40.8 µM in the assay with SF-268 CNS and more than 100 µM with MOLT-4 leukemia.

For `CSc1c(C)c(C)nn1-c1ccccc1`, the TGI in the assay on M14 melanoma, in the assay with SW-620 colon, in the assay with LOX IMVI melanoma, with ACHN renal, in the assay on RPMI-8226 leukemia and with SF-268 CNS was more than 100 µM throughout. Also, the TGI in the assay on SK-OV-3 ovarian and in the assay on MOLT-4 leukemia was more than 100 µM in each case.

As for `O=C1C2=C(c3ccccc31)C(c1ccccc1Cl)N1C(=O)CCSC1=N2` (stereo not given), the TGI in the assay with M14 melanoma, with SW-620 colon, in the assay with ACHN renal, in the assay on RPMI-8226 leukemia, in the assay on HCT-116 colon and with SF-268 CNS was more than 100 µM in each case. Also, the TGI with SK-OV-3 ovarian and in the assay on MOLT-4 leukemia was more than 100 µM each time.

As for `C=CCC1[C@@H](C(C)(C)C(C(C)=O)C(=O)C(=O)OC)OC(C(C)(C)C)N1C(=O)OC` (stereo not given in full), the TGI in the assay with M14 melanoma was more than 100 µM; in the assay with ACHN renal it was more than 100 µM; with HCT-116 colon, more than 100 µM; in the assay on SF-268 CNS, more than 100 µM; in the assay on SK-OV-3 ovarian, more than 100 µM; in the assay on MOLT-4 leukemia, 70.9 µM.

Turning to `CCOC(=O)C(=O)Nc1ccccc1C(F)(F)F`, the TGI with M14 melanoma, in the assay with SW-620 colon, with LOX IMVI melanoma, in the assay with ACHN renal, with RPMI-8226 leukemia and with HCT-116 colon was more than 100 µM in each case. Besides, the TGI with SF-268 CNS and with SK-OV-3 ovarian was more than 100 µM each time.

`COc1cc2cnc3c4ccccc4ccc3c2cc1OC`: the TGI with M14 melanoma, in the assay on SW-620 colon, with ACHN renal, with RPMI-8226 leukemia, with SF-268 CNS and in the assay with SK-OV-3 ovarian was more than 100 µM in each case. In addition, the TGI in the assay with MOLT-4 leukemia was more than 100 µM.

Turning to `CC(CC(=O)Nc1ccc(NC(=O)CC(C)N=NC(N)=S)cc1)N=NC(N)=S` (stereo not given), the TGI with M14 melanoma, with LOX IMVI melanoma, in the assay with ACHN renal, in the assay with RPMI-8226 leukemia, with HCT-116 colon and in the assay with SF-268 CNS was more than 100 µM throughout. The TGI in the assay with MOLT-4 leukemia is more than 100 µM.

As for `CC1=C(C(=O)Nc2ccccc2C)C(/C=C/c2ccccc2)C(C(=O)Nc2ccccc2C)=C(C)N1`, the TGI with M14 melanoma, with SW-620 colon, in the assay with LOX IMVI melanoma, in the assay with ACHN renal, in the assay on HCT-116 colon and in the assay on SF-268 CNS was more than 100 µM each time. In the assay with SK-OV-3 ovarian, the TGI was more than 100 µM.

`O=c1ncccn1C1C=C(CO)C(O)C1O` (stereo not given): the TGI in the assay with M14 melanoma, with SW-620 colon, with LOX IMVI melanoma, with ACHN renal, in the assay with RPMI-8226 leukemia and in the assay with SF-268 CNS was more than 50 µM in each case. In addition, the TGI in the assay with SK-OV-3 ovarian and with MOLT-4 leukemia was more than 50 µM in each case.

Regarding `CC1(C)OC2COC3(CNO)OC(C)(C)OC3C2O1` (stereo not given), the TGI in the assay on M14 melanoma, in the assay with SW-620 colon, in the assay with LOX IMVI melanoma, with ACHN renal, in the assay on HCT-116 colon and in the assay with SF-268 CNS was more than 100 µM throughout. Also, the TGI in the assay on SK-OV-3 ovarian and in the assay with MOLT-4 leukemia was more than 100 µM in each case.

With `NC(N)=NS(=O)(=O)c1ccc(NC(=O)c2cccc3c(Nc4ccc(S(N)(=O)=O)cc4)c4ccccc4nc23)cc1`, the TGI in the assay on M14 melanoma, in the assay with SW-620 colon, in the assay on LOX IMVI melanoma, in the assay with ACHN renal, in the assay with RPMI-8226 leukemia and in the assay on SF-268 CNS was more than 100 µM each time. Also, the TGI in the assay on SK-OV-3 ovarian and in the assay on MOLT-4 leukemia was more than 100 µM throughout.

`COC(=O)/C(C#N)=C1\CCC(C(=O)OC)N1C` (stereo not given): the TGI in the assay with M14 melanoma, in the assay on RPMI-8226 leukemia, in the assay with HCT-116 colon, with SF-268 CNS, with SK-OV-3 ovarian and in the assay with MOLT-4 leukemia was more than 100 µM in each case.
